Data published in patent US8586591B2, “Aminopyrazine derivative and medicine” (Nippon Shinyaku Co., Ltd., priority 2009, dated 2013).
Structures can show the parent of a compound that is named as a salt.

Legend:
JAK2 tyrosine kinase = molecular target: T1, JAK2 tyrosine kinase (Homo sapiens, UniProt O60674); experiment: Test 1: inhibitory activity to JAK2 tyrosine kinase (ELISA); assay type: biochemical; settings: 25 μM ATP in substrate solution, 30° C. for 1 hour, n=2
T1 construct: purchased Carnabioscience Co
T1 sequence (O60674 whole entry): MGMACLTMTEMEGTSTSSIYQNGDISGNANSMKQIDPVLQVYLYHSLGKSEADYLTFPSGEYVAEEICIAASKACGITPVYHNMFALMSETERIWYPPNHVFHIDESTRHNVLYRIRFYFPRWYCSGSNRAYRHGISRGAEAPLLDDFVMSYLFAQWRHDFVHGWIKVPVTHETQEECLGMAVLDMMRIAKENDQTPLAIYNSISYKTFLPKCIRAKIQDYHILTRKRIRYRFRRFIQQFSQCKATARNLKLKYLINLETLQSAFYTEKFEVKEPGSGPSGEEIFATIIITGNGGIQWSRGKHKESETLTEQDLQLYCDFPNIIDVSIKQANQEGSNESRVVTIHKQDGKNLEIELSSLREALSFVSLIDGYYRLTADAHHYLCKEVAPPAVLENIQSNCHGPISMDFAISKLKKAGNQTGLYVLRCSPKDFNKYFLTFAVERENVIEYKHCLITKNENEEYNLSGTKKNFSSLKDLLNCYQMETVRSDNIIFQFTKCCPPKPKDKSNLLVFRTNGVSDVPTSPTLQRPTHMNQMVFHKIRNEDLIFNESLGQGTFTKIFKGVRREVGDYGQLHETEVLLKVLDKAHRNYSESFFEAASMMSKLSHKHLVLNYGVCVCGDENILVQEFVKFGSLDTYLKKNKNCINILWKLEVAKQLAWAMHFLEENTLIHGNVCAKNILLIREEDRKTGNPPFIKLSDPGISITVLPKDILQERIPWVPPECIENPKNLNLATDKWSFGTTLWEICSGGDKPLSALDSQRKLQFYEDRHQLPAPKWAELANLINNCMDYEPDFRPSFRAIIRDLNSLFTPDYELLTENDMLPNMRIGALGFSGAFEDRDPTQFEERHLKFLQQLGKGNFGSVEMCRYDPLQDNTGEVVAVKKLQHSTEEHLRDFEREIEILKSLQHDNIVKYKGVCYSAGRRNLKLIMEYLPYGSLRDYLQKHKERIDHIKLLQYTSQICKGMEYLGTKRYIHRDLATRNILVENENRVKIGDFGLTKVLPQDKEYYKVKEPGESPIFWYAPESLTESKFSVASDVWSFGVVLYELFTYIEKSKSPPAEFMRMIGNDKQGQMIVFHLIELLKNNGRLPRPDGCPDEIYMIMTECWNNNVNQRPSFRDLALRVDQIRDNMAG
In short: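 This is an ELISA read at A450 (HRP anti-phosphotyrosine antibody, TMB) of biotin-peptide phosphorylation captured on streptavidin. Enzyme solution was 0.75 nM JAK2, and the substrate solution was 625 nM peptide with 25 μM ATP in Tris pH 7.5 buffer. The reaction ran 1 h at 30 °C with compounds in duplicate, and IC50 was fitted non-linearly.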

JAK3 tyrosine kinase = molecular target: T2, JAK3 tyrosine kinase (Homo sapiens, UniProt P52333); experiment: Test 1: inhibitory activity to JAK3 tyrosine kinase (ELISA); assay type: biochemical; settings: 25 μM ATP in substrate solution, 30° C. for 1 hour, n=2
T2 construct: purchased Carnabioscience Co
T2 sequence (P52333 1-1124): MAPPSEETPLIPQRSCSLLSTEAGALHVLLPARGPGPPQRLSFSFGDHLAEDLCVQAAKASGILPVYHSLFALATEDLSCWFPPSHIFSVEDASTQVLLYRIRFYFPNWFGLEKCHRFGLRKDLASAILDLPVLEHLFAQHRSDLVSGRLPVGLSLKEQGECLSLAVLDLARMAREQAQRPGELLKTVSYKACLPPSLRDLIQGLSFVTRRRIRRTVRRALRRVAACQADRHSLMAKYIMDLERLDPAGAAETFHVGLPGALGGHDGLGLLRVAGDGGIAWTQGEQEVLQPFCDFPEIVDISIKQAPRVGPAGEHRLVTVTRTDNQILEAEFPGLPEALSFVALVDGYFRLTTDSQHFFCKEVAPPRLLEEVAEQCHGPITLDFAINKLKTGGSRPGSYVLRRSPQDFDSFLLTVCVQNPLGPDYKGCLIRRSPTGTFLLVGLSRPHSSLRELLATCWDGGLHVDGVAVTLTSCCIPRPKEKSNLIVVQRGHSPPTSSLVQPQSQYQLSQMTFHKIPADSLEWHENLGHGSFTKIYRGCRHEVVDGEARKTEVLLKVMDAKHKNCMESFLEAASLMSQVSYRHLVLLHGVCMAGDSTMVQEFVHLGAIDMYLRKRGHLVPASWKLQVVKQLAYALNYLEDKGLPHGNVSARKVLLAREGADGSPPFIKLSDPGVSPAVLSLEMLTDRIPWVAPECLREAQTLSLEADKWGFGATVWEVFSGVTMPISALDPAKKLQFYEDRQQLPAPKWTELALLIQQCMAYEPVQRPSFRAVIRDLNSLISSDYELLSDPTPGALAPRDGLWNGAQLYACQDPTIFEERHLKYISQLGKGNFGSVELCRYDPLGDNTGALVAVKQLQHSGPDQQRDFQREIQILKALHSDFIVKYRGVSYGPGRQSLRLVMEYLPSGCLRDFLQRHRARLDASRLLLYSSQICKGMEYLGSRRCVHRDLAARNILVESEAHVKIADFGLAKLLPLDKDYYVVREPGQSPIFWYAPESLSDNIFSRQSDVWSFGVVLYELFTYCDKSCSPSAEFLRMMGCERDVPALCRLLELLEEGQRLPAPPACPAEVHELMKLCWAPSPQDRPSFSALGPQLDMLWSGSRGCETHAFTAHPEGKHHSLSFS
In short: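 ELISA of JAK3 kinase activity with absorbance read at 450 nm. Compounds were tested from DMSO dilution series at 100-fold the measurement concentrations (1000–0.01 μM), diluted up to 20 times in assay buffer, against a DMSO negative control. IC50 was estimated by non-linear regression of absorbance.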

IC50 (JAK2 tyrosine kinase) [nM]	IC50 (JAK3 tyrosine kinase) [nM]	SMILES
4.5	120	C[C@H](Nc1cc(N2CC(O)(C3CC3)C2)cc(Nc2cnccn2)n1)c1ccc(F)cc1 [Example 203, (S)-3-Cyclopropyl-1-{2-[1-(4-fluorophenyl)ethylamino]-6-(pyrazin-2-ylamino)pyridin-4-yl}azetidin-3-ol hydrochloride]
1.1	56	C[C@H](Nc1nc(NCc2ccncc2)cc(Nc2cnccn2)n1)c1ccc(F)cc1 [Example 108, (S)—N^2-[1-(4-Fluorophenyl)ethyl]-N^4-(pyrazin-2-yl)-N^6-(pyridin-4-ylmethyl)pyrimidine-2,4,6-triamine]
1.9	570	C[C@H](Nc1cc(C(=O)NCC(F)(F)F)cc(Nc2cnccn2)n1)c1ccc(F)cc1 [Example 171, (S)-2-[1-(4-Fluorophenyl)ethylamino]-6-(pyrazin-2-ylamino)-N-(2,2,2-trifluoroethyl) isonicotinamide]
5.4	170	C[C@H](Nc1cc(N2CC(N3CCC(O)CC3)C2)cc(Nc2cnccn2)n1)c1ccc(F)cc1 [Example 234, (S)-1-(1-{2-[1-(4-Fluorophenyl)ethylamino]-6-(pyrazin-2-ylamino)pyridin-4-yl}azetidin-3-yl)piperidin-4-ol]
2.6	330	Cn1cc(-c2cc(Nc3cnccn3)nc(NC(CO)c3ccc(F)cc3)c2)cn1 (centres unmarked) [Example 179, 2-(4-Fluorophenyl)-2-[4-(1-methyl-1H-pyrazol-4-yl)-6-(pyrazin-2-ylamino)pyridin-2-ylamino]ethanol]
2.4	87	C[C@H](Nc1nc(Nc2cnccn2)cc(N[C@H](CO)c2ccccc2)n1)c1ccc(F)cc1 [Example 86, (S)-2-{2-[(S)-1-(4-Fluorophenyl)ethylamino]-6-(pyrazin-2-ylamino)pyrimidin-4-ylamino}-2-phenylethanol]
1	66	CC(=O)NC1CN(c2cc(Nc3cnccn3)nc(N[C@@H](C)c3ccc(F)cc3)n2)C1 [Example 42, (S)—N-(1-{2-[1-(4-Fluorophenyl)ethylamino]-6-(pyrazin-2-ylamino)pyrimidin-4-yl}azetidin-3-yl)acetamide]
4.7	470	C[C@H](Nc1cc(N2CC(O)C2)cc(Nc2cnccn2)n1)c1ccc(F)cc1 [Example 202, (S)-1-{2-[1-(4-Fluorophenyl)ethylamino]-6-(pyrazin-2-ylamino)pyridin-4-yl}azetidin-3-ol hydrochloride]
1.2	130	C[C@H](Nc1nc(Nc2cnccn2)cc(N2CC(F)(F)C2)n1)c1ccc(F)cc1 [Example 3, (S)-6-(3,3-Difluoroazetidin-1-yl)-N^2-[1-(4-fluorophenyl)ethyl]-N^4-(pyrazin-2-yl)pyrimidine-2,4-diamine hydrochloride]
2.7	170	Cc1cc(Nc2cnccn2)nc(N[C@@H](C)c2ccc(F)cc2)c1 [Example 121, (S)—N^2-[1-(4-Fluorophenyl)ethyl]-4-methyl-N^6-(pyrazin-2-yl)pyridine-2,6-diamine hydrochloride]
8.1	220	CC(C)C1(O)CN(c2cc(Nc3cnccn3)nc(N[C@@H](C)c3ccc(F)cc3)c2)C1 [Example 204, (S)-1-{2-[1-(4-Fluorophenyl)ethylamino]-6-(pyrazin-2-ylamino)pyridin-4-yl}-3-isopropylazetidin-3-ol hydrochloride]
1.7	99	C[C@H](Nc1nc(Nc2cnccn2)cc(-c2ccoc2)n1)c1ccc(F)cc1 [Example 82, (S)—N^2-[1-(4-Fluorophenyl)ethyl]-6-(furan-3-yl)-N^4-(pyrazin-2-yl)pyrimidine-2,4-diamine hydrochloride]
2.6	69	COCn1cc(-c2cc(Nc3cnccn3)nc(N[C@@H](C)c3ccc(F)cc3)c2)cn1 [Example 219, (S)—N^2-[1-(4-Fluorophenyl)ethyl]-4-[1-(methoxymethyl)-1H-pyrazol-4-yl]-N^6-(pyrazin-2-yl)pyridine-2,6-diamine]
1.4	35	CC(=O)NCCNc1cc(Nc2cnccn2)nc(N[C@@H](C)c2ccc(F)cc2)n1 [Example 78, (S)—N-(2-{2-[1-(4-Fluorophenyl)ethylamino]-6-(pyrazin-2-ylamino)pyrimidin-4-ylamino}ethyl) acetamide hydrochloride]
5.3	340	C[C@H](Nc1cc(-c2cc[nH]c2)cc(Nc2cnccn2)n1)c1ccc(F)cc1 [Example 116, (S)—N^2-[1-(4-Fluorophenyl)ethyl]-N^6-(pyrazin-2-yl)-4-(1H-pyrrol-3-yl)pyridine-2,6-diamine dihydrochloride]
22	1800	C[C@H](Nc1nc(Nc2cnccn2)cc(-c2nccs2)n1)c1ccc(F)cc1 [Example 54, (S)—N^2-[1-(4-Fluorophenyl)ethyl]-N^4-(pyrazin-2-yl)-6-(thiazol-2-yl)pyrimidine-2,4-diamine]
12	1500	C[C@H](Nc1nc(Nc2cnccn2)ccc1C(=O)NCC1CC1)c1ccc(F)cc1 [Example 189, (S)—N-(Cyclopropylmethyl)-2-[1-(4-fluorophenyl)ethylamino]-6-(pyrazin-2-ylamino)nicotinamide]
2.5	52	CCNC(=O)C1CN(c2cc(Nc3cnccn3)nc(N[C@@H](C)c3ccc(F)cc3)n2)C1 [Example 180, (S)—N-Ethyl-1-{2-[1-(4-fluorophenyl)ethylamino]-6-(pyrazin-2-ylamino)pyrimidin-4-yl}azetidine-3-carboxamide]
0.69	26	C[C@H](Nc1nc(Nc2cnccn2)cc(N2CCNC(C(N)=O)C2)n1)c1ccc(F)cc1 (stereo partly drawn) [Example 58, 4-{2-[(S)-1-(4-Fluorophenyl)ethylamino]-6-(pyrazin-2-ylamino)pyrimidin-4-yl}piperazin-2-carboxamide]
3.2	130	CC(C)n1cc(-c2cc(Nc3cnccn3)nc(N[C@@H](C)c3ccc(F)cc3)c2)cn1 [Example 37, (S)—N^2-[1-(4-Fluorophenyl)ethyl]-4-(1-isopropyl-1H-pyrazol-4-yl)-N^6-(pyrazin-2-yl)pyridine-2,6-diamine hydrochloride]
5.7	500	COc1ccc(-c2cc(Nc3cnccn3)nc(N[C@@H](C)c3ccc(F)cc3)c2)cn1 [Example 6, (S)—N^2′-[1-(4-Fluorophenyl)ethyl]-6-methoxy-N^6′-(pyrazin-2-yl)-3,4′-bipyridine-2′,6′-diamine]
1.6	88	C[C@H](Nc1nc(Nc2cnccn2)cc(-c2cnco2)n1)c1ccc(F)cc1 [Example 22, (S)—N^2-[1-(4-Fluorophenyl)ethyl]-6-(oxazol-5-yl)-N^4-(pyrazin-2-yl)pyrimidine-2,4-diamine hydrochloride]
1.5	200	CCOCCNC(=O)c1cc(Nc2cnccn2)nc(N[C@@H](C)c2ccc(F)cc2)c1 [Example 173, (S)—N-(2-Ethoxyethyl)-2-[1-(4-fluorophenyl)ethylamino]-6-(pyrazin-2-ylamino)isonicotinamide]
2	190	C[C@H](Nc1nc(Nc2cnccn2)cc(-c2ccc(C#N)nc2)n1)c1ccc(F)cc1 [Example 55, (S)-5-{2-[1-(4-Fluorophenyl)ethylamino]-6-(pyrazin-2-ylamino)pyrimidin-4-yl}picolinonitrile]
1.3	48	C[C@H](Nc1nc(Nc2cnccn2)cc(N2CCCC(O)C2)n1)c1ccc(F)cc1 (stereo partly drawn) [Example 73, 1-{2-[(S)-1-(4-Fluorophenyl)ethylamino]-6-(pyrazin-2-ylamino)pyrimidin-4-yl}piperidin-3-ol hydrochloride]
